Reference: ChEMBL document CHEMBL1201862, “PubChem BioAssay data set” (2004)
Calls of active or inactive are those of the source.

Legend:
[1] = molecular target: T1, Sentrin-specific protease 8 (Homo sapiens, UniProt Q96LD8); type: functional;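 further: luminescence read-out of SENP8 inhibition, dose-response confirmation following an ultra-high-throughput screen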
T1 sequence (Q96LD8 whole entry): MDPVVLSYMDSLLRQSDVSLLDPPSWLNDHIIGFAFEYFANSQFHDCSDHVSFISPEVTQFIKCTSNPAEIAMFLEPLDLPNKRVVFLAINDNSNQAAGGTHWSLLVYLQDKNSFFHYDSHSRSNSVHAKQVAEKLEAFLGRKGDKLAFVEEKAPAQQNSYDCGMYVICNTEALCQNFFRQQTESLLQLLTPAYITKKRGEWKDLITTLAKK

[2] = molecular target: T2, Caspase-6 (Homo sapiens, UniProt P55212); assay: inhibition of CASP6 peptide cleavage – biochemical, VEID-R110 fluorescence, cherry-pick, dose response (AID 720632)
T2 sequence (P55212 whole entry): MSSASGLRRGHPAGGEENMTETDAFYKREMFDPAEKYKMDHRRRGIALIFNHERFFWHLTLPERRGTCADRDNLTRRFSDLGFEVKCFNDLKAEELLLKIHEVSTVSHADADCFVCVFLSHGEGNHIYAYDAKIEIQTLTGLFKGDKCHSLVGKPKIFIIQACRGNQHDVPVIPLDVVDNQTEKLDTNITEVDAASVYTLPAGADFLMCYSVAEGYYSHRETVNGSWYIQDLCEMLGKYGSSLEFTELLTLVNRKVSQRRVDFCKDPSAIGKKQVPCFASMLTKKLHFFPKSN

[3] = system: HEK293; assay: SAR Analysis of small molecule inhibitors of T-cell specific antigen receptor-induced NF-kB activation in a HEK-293T cell line using a luminescence assay - Set 2. [Related pubchem assays (depositor defined):AID435003, AID435012, AID489026]; type: functional, cell-based; settings: Homo sapiens
[4] = molecular target: Nonstructural protein 1 (Influenza A virus, UniProt Q194T2); type: functional, Influenza A virus (A/California/07/2009(H1N1))
[5] = fluconazole-exposed Candida albicans growth modulators – fluorescence, retest, confirmation (AID 2467); type: functional, cell-based
[6] = NIH-3T3 fibroblast cytotoxicity, dose response, cytotoxicity control, cell-based, fluorescence, Alamar Blue, secondary assay (AID 2327); type: functional;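 further: NIH-3T3 mouse fibroblasts cultured with fluconazole at 8 µg/mL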

Nonstructural protein 1, sequence (Q194T2 whole entry): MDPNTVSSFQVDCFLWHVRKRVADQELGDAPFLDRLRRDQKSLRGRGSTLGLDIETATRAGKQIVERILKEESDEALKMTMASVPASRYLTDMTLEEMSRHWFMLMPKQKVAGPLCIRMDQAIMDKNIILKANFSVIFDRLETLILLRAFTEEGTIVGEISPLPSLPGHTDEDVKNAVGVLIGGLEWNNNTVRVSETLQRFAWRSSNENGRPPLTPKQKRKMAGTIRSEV

With `CN(CC(=O)Nc1ccccc1Cl)C(=O)COC(=O)c1ccc([N+](=O)[O-])s1` the IC50 [1] was 3.95 µM (active) and the AC50 [2] was 4.3 µM (active).
For `CCCCC(=O)NC(c1ccc(N(C)C)cc1)c1ccc2cccnc2c1O` (stereo unspecified), the IC50 [3] was 2.23 µM (active), the IC50 [4] was 24.9 µM (active) and the EC50 [5] was 832 nM (active). For the same molecule, the EC50 [6] was 28.4 µM (inconclusive).
